Entries after “also recorded” stand apart in the source; their conditions may differ.
Tests used:
[1] = system: Bacillus subtilis ATCC 6633; test: Disc agar diffusion assay; type: cell-based
Protocol: (§1) As a further test of an embodiment, the antibacterial properties of EIPE-1 were tested across a large panel of organisms. EIPE-1 was dissolved in DMSO, impregnated onto sterile filter paper disks, and DMSO served as the untreated control according to the following procedure: • 1. Prepare a 2.5 μg/μL stock solution of EIPE-1 by micro pipetting 200 μL of DMSO into 2.0 mL Eppendorf Tube containing 0.5 mg of EIPE-1. Dissolve with vortex agitation and store at 4° C. • 2. Use forceps to pick up sterile 6.0 mm blank paper disks. Make sure to touch only one side of disc as lightly as possible. […] Lean the impregnated disc up against the side of a small sterile glass petri dish. Follow same procedure for DMSO control. Allow disks several hours to dry under flowing sterile air. • 3. Inoculate starter cultures using cells from working culture cultivated on Mueller-Hinton Agar (MHA; Difco Laboratories). Starters consist of ˜20 mL of Mueller-Hinton Broth (MHB; Difco Laboratories) in 125-mL culture flasks. Incubate starter cultures in an Excella E24 Benchtop Incubator Shaker (New Brunswick Scientific Co., Inc., Edison, N.J., USA) at 37° C. and 180 rpm for 15-18 hours. • 4. Pour at least 5.0 mL of NMB into 18-mL Kimax tubes. Use a Pasteur pipette to deliver enough of the starter culture cell suspension to reach an optical density (OD620) of 0.025 (Spectronic™ 20 optical spectrophotometer; Thermo Electron Corp., Madison, Wis., USA). Ensure that both transmittance and absorbance are set to 0.0 using a blank NMB sample. Incubate in rotary shaking incubator at 37° C. and 180 rpm until optical density reaches 0.1. • 5. Deliver 100 μL of test culture to the middle of a small 100 mm×15 mm Petri dish containing ˜⅛ in thickness of MHA. • 6. Saturate a sterile cotton swab with MHB by dipping the cotton swab into KIMAX® tube with MHB and then touch the swab to the north, south, east, and west side of the KIMAX® tube to remove excess broth. • 7. Streak the inoculum as follows: • a. Start in the center and make four straight lines to the 12, 3, 6, and 9 o'clock position on the petri dish. • b. Start at the 12 o'clock position and streak side to side all the way down the plate to the 6 o'clock position. […] Rotate the petri dish 90° and complete the same side to side streak all the way down the petri dish. • d. Complete step c. twice more. • e. Rotate petri dish 45° and complete the side-to-side streak. • f. Rotate petri dish 90° and complete the side-to-side streak. • 8. Use sterile forceps to transfer the DMSO control paper disc onto the agar surface and pat the paper disc down to ensure flush contact. Use the same technique to deliver EIPE-1 paper disc. • 9. Place petri dish at 4° C. for 1.0 hour to allow EIPE-1 diffusion in the absence of growth. • 10. Incubate petri dish at 37° C. for 18 hours. • 11. Observe for zones of growth inhibition surrounding disks. Measure diameter with electronic caliper and subtract 6.0-mm disc diameter. Results • a) Each organism was initially tested once to serve as a screen.

[2] = system: Staphylococcus aureus ATCC 25923; test: Disc agar diffusion assay; type: cell-based
Protocol: as §1

MRSA = test: Scanning electron microscopy of treated bacteria; type: cell-based, Staphylococcus aureus; conditions: 0.01 mg/mL for 30 minutes
Protocol: MRSA was grown overnight in 10 mL of LB broth, sub-cultured (5 mL of overnight culture added to 20 mL LB) and grown for 3 h. MRSA culture (300 μL) were removed, placed into a 1.5 mL tube, and treated with DMSO or EIPE-1 (0.01 mg/mL) for 30 minutes. Each sample was placed on glass coverslips (treated with poly-L-lysine) in a 24 well plate and fixed with 2% glutaraldehyde (in 0.1 M sodium cacodylate buffer) for 2 h at room temperature. After fixation, samples were washed three times with 0.1 M sodium cacodylate buffer. Samples were then fixed with 1% osmium tetroxide in water for 1 h at room temperature and were then washed three times with 0.1 M sodium cacodylate buffer. The samples were then dehydrated with an ethanol series (once with 50%, 70%, 90%, 95% and thrice with 100% ethanol). Samples were dried using hexamethyldisilazane (HAMIDS) and then were mounted on stubs. Finally, samples were coated with gold and palladium using an automated sputter coater. Micrographs were acquired using Quanta 600 Scanning electron microscope.
To visualize potential membrane changes, DMSO and EIPE-1 treated MRSA were prepped and visualized by scanning electron microscopy (FIG. 4B). […] FIG. 4(C) contains bar charts that show the percentage of live and dead MRSA from 20 microscopy fields of view.

[3] = Group 3: Gram-positive organisms

With `COC(=O)c1cc2c(C#Cc3ccc(OCCC[N+](C)(C)C)cc3)c(OC)c(OC)c(C#Cc3ccc(OCCC[N+](C)(C)C)cc3)c2n1C` [EIPE-1, 3,3′-((((5,6-dimethoxy-2-(methoxycarbonyl)-1-methyl-1H-indole-4,7-diyl)bis(ethyne-2,1-diyl))bis(4,1-phenylene))bis(oxy))bis(N,N,N-trimethylpropan-1-aminium) iodide] the “Inhibition Zone Diameter (mm) ± SD” value ([1]; B. subtilis ATCC 6633, 25 μg per disk, zone minus disk diameter (6.0mm)) was 1.1 ± 0.2 mm, the “Inhibition Zone Diameter (mm) ± SD” value ([1]; B. subtilis ATCC 6633, 50 μg per disk, zone minus disk diameter (6.0mm)) was 3.3 ± 0.1 mm and the zone of inhibition at 25 µg/disc ([1]; Bacillus subtilis, ATCC6633, B. subtilis ATCC 6633, 25 μg per disk, zone minus disk diameter (6.0mm), read-out: Inhibition Zone Diameter (mm) ± SD) was 1.1 mm. The zone of inhibition at 50 µg/disc ([1]; Bacillus subtilis, ATCC6633, B. subtilis ATCC 6633, 50 μg per disk, zone minus disk diameter (6.0mm), read-out: Inhibition Zone Diameter (mm) ± SD) was 3.3 mm, the zone of inhibition at 250 µg/disc ([1]; Bacillus subtilis, ATCC6633, B. subtilis ATCC 6633, 250 μg per disk, zone minus disk diameter (6.0mm), read-out: Inhibition Zone Diameter (mm) ± SD) was 1.8 ± 0.3 mm and the “susceptibility group in disc diffusion screen” value [1, 3] was “susceptible”. For the same molecule, the “susceptibility group in disc diffusion screen” value [2, 3] was “susceptible”, the “Inhibition Zone Diameter (mm) ± SD” value ([2]; S. aureus ATCC 25923, 25 μg per disk, zone minus disk diameter (6.0mm)) was 1.6 ± 0.1 mm and the “Inhibition Zone Diameter (mm) ± SD” value ([2]; S. aureus ATCC 25923, 50 μg per disk, zone minus disk diameter (6.0mm)) was 3.1 ± 0.2 mm. The zone of inhibition at 25 µg/disc ([2]; Staphylococcus aureus, ATCC25923, S. aureus ATCC 25923, 25 μg per disk, zone minus disk diameter (6.0mm), read-out: Inhibition Zone Diameter (mm) ± SD) was 1.6 mm, the zone of inhibition at 50 µg/disc ([2]; Staphylococcus aureus, ATCC25923, S. aureus ATCC 25923, 50 μg per disk, zone minus disk diameter (6.0mm), read-out: Inhibition Zone Diameter (mm) ± SD) was 3.1 mm and the zone of inhibition at 250 µg/disc ([2]; Staphylococcus aureus, ATCC25923, S. aureus ATCC 25923, 250 μg per disk, zone minus disk diameter (6.0mm), read-out: Inhibition Zone Diameter (mm) ± SD) was 2.3 ± 0.2 mm. The “cell membrane appearance by SEM” value (MRSA) was “cell membrane damage; also recorded: damaged cell membranes”.

Source: US11730717B1, “Melanin-inspired antimicrobial” (The Board of Regents for the Oklahoma Agricultural and …, priority 2020, dated 2023)
